Data published in patent US9446039B2, “Aminoheteroaryl compounds as MTH1 inhibitors” (CEMM—FORSCHUNGSZENTRUM FÜR MOLEKULARE MEDIZIN GMBH, priority 2012, dated 2016).

Assays:
Type in all cases: binding
[1] = target: T1, SW480 colon carcinoma cells lysate proteins (Homo sapiens, UniProt P16949); settings: PreyGene STMN1
T1 sequence (P16949 1-149): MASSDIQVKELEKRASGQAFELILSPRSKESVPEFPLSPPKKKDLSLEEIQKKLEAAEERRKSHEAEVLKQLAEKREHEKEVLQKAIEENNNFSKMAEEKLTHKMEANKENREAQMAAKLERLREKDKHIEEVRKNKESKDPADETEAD

[2] = target: SW480 colon carcinoma cells lysate proteins (Homo sapiens, UniProt Q16658); settings: PreyGene FSCN1
[3] = target: T2, SW480 colon carcinoma cells lysate proteins (Homo sapiens, UniProt Q8NFT6); settings: PreyGene DBF4B
T2 sequence (Q8NFT6 1-615): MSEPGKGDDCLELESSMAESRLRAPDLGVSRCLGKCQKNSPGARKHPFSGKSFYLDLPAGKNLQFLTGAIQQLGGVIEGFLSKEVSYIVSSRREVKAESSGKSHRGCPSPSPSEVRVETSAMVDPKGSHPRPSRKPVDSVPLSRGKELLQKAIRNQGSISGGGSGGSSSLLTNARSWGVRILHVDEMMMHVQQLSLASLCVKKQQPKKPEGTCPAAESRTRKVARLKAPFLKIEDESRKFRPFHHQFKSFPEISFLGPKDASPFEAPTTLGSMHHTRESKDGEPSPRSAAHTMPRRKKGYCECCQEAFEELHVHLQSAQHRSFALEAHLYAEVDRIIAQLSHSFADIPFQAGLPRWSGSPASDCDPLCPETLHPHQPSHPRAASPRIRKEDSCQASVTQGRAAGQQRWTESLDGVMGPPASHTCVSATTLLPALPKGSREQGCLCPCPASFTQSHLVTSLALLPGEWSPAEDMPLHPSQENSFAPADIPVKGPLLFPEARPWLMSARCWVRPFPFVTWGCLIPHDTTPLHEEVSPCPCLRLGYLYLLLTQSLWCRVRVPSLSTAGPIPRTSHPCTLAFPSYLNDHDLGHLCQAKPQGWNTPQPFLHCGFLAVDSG

[4] = target: T3, SW480 colon carcinoma cells lysate proteins (Homo sapiens, UniProt O43175); settings: PreyGene PHGDH
T3 sequence (O43175 1-533): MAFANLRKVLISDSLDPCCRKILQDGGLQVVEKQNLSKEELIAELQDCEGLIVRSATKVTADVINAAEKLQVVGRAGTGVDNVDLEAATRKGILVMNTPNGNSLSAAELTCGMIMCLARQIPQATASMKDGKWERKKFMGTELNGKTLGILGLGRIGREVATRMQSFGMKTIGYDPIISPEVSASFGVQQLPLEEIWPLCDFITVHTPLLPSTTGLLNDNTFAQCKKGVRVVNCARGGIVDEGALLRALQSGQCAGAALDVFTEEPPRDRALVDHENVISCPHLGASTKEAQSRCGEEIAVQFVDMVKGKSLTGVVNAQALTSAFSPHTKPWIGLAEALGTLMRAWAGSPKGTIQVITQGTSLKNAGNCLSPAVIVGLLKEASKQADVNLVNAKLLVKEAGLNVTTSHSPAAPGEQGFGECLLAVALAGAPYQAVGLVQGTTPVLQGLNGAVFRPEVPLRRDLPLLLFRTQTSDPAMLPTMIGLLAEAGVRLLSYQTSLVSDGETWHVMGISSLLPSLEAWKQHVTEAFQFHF

[5] = target: SW480 colon carcinoma cells lysate proteins (Homo sapiens, UniProt P38646); settings: PreyGene HSPA9
[6] = target: SW480 colon carcinoma cells lysate proteins (Homo sapiens, UniProt Q71U36); settings: PreyGene TUBA1A; SW480 cells
[7] = target: T4, SW480 colon carcinoma cells lysate proteins (Homo sapiens, UniProt P52209); settings: PreyGene PGD
T4 sequence (P52209 1-483): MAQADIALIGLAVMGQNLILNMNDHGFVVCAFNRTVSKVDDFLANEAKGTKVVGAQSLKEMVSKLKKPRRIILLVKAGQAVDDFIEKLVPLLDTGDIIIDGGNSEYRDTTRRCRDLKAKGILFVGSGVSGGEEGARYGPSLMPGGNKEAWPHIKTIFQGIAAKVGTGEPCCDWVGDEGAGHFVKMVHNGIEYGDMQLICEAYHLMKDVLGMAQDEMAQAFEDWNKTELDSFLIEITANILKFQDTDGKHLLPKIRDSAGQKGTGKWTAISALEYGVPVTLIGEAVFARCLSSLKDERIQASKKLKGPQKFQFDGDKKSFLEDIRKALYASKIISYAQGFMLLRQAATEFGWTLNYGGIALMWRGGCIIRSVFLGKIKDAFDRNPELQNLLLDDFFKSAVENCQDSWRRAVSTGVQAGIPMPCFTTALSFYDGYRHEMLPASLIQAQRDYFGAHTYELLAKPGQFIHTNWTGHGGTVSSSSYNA

[8] = target: SW480 colon carcinoma cells lysate proteins (Homo sapiens, UniProt P12004); settings: PreyGene PCNA
Chain of SW480 colon carcinoma cells lysate proteins (Homo sapiens, UniProt P12004) (P12004 whole entry): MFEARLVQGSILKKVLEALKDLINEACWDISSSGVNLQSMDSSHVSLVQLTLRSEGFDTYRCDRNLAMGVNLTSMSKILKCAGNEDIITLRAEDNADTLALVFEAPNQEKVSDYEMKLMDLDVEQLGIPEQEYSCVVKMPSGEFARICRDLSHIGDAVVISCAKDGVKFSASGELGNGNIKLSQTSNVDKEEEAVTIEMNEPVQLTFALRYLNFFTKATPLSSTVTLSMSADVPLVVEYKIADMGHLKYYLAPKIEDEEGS

Chain of SW480 colon carcinoma cells lysate proteins (Homo sapiens, UniProt P38646) (P38646 47-679): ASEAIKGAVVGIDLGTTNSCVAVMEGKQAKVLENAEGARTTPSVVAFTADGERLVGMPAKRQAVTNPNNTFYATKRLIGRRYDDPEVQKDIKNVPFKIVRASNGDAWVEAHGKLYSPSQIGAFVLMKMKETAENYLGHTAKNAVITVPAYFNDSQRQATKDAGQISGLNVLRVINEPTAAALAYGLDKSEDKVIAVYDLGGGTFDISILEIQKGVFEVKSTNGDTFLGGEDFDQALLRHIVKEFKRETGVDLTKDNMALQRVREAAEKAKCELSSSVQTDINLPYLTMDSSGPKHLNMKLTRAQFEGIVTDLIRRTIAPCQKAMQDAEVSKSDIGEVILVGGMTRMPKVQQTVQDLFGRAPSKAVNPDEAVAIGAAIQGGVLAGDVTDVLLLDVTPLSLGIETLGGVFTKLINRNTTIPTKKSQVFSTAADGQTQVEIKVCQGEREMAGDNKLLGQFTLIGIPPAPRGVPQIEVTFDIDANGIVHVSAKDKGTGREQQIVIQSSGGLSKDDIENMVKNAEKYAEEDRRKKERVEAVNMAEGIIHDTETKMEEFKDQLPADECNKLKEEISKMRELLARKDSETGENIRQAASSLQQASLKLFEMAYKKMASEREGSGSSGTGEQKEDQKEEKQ
Chain of SW480 colon carcinoma cells lysate proteins (Homo sapiens, UniProt Q71U36) (Q71U36 whole entry): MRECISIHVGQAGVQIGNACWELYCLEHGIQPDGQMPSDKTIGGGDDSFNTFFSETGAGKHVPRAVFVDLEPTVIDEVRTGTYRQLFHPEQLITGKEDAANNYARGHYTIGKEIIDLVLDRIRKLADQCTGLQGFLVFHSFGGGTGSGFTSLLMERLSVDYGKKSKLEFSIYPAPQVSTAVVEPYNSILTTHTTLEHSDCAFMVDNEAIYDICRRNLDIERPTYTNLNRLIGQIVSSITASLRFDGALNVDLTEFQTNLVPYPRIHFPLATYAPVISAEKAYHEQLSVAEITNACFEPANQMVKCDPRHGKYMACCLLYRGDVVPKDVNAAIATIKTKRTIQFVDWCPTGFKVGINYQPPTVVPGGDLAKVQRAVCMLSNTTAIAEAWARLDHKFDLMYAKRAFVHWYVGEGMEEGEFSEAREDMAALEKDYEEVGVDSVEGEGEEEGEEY

## C[C@H](Oc1cc(-c2cnn(C3CCNCC3)c2)cnc1N)c1c(Cl)ccc(F)c1Cl [(5)-crizotinib]
[1]
  AvgP: 0.4156
  SC.Exp. 1-1: 3
  SC.Exp. 1-2: 3
  SC.Exp. 2-1: 0
  SC.Exp. 2-2: 0
  Sum (SC.Exp.): 6
[2]
  AvgP: 0.4044
  SC.Exp. 1-1: 2
  SC.Exp. 1-2: 3
  SC.Exp. 2-1: 0
  SC.Exp. 2-2: 0
  Sum (SC.Exp.): 5
[3]
  AvgP: 0.2
  SC.Exp. 1-1: 0
  SC.Exp. 1-2: 0
  SC.Exp. 2-1: 2
  SC.Exp. 2-2: 0
  Sum (SC.Exp.): 2
[4]
  AvgP: 0.4081
  SC.Exp. 1-1: 5
  SC.Exp. 1-2: 7
  SC.Exp. 2-1: 0
  SC.Exp. 2-2: 0
  Sum (SC.Exp.): 12
[5]
  AvgP: 0.3567
  SC.Exp. 1-1: 2
  SC.Exp. 1-2: 3
  SC.Exp. 2-1: 0
  SC.Exp. 2-2: 0
  Sum (SC.Exp.): 5
[6]
  AvgP: 0
  SC.Exp. 1-1: 12
  SC.Exp. 1-2: 11
  SC.Exp. 2-1: 9
  SC.Exp. 2-2: 10
  SC.Exp. Sum: 42
[7]
  AvgP: 0.3262
  SC.Exp. 1-1: 4
  SC.Exp. 1-2: 2
  SC.Exp. 2-1: 0
  SC.Exp. 2-2: 0
  Sum (SC.Exp.): 6
[8]
  AvgP: 0.3137
  SC.Exp. 1-1: 2
  SC.Exp. 1-2: 1
  SC.Exp. 2-1: 0
  SC.Exp. 2-2: 0
  Sum (SC.Exp.): 3
